Where “and” joins values, the source holds several entries; their conditions need not be identical. Identical values can stand only once.
Experiments:
[1] = Crystal
[2] = Molar enthalpy of transition or fusion; conditions: Crystal
[3] = molar heat capacity at constant pressure; conditions: 101.33 kPa

OC[C@@H](O)[C@H](O)[C@@H](O)CO [xylitol]
Conditions	Molar enthalpy of transition or fusion	Triple point temperature
[1]	–	367.52 K and 369.06 K
[2]	8.05 kcal/mol and 7.95 kcal/mol	–

[3]
Conditions	molar heat capacity at constant pressure [J/K/mol]
80 K, Crystal	63.67
80.07 K, Crystal	62.71
83.61 K, Crystal	65.01
85 K, Crystal	66.43
86.53 K, Crystal	67.25
89.49 K, Crystal	69.29
90 K, Crystal	69.62
92.49 K, Crystal	71.54
95 K, Crystal	73.13
95.54 K, Crystal	73.71
98.51 K, Crystal	75.94
100 K, Crystal	76.86
101.4 K, Crystal	78.2
104.34 K, Crystal	80.53
105 K, Crystal	80.73
107.35 K, Crystal	82.78
110 K, Crystal	84.68
110.28 K, Crystal	84.97
113.27 K, Crystal	87.33
115 K, Crystal	88.65
116.32 K, Crystal	89.39
119.31 K, Crystal	91.73
120 K, Crystal	92.61
122.25 K, Crystal	93.79
125 K, Crystal	96.54
125.24 K, Crystal	96.15
128.3 K, Crystal	98.38
130 K, Crystal	100.4
131.31 K, Crystal	100.5
134.27 K, Crystal	102.7
135 K, Crystal	104.2
137.29 K, Crystal	104.8
140 K, Crystal	108
140.38 K, Crystal	106.6
143.41 K, Crystal	109
145 K, Crystal	111.7
146.39 K, Crystal	111.2
149.42 K, Crystal	113.3
150 K, Crystal	115.3
152.51 K, Crystal	115.5
155 K, Crystal	118.9
155.56 K, Crystal	117.7
158.57 K, Crystal	119.8
160 K, Crystal	122.4
161.56 K, Crystal	121.9
164.6 K, Crystal	123.9
165 K, Crystal	126
167.69 K, Crystal	126
170 K, Crystal	129.5
170.76 K, Crystal	129.7
173.84 K, Crystal	132.3
175 K, Crystal	133
176.88 K, Crystal	134
179.99 K, Crystal	136
180 K, Crystal	136.6
183.16 K, Crystal	138
185 K, Crystal	140.1
186.3 K, Crystal	140.4
190 K, Crystal	143.7
192.5 K, Crystal	144.2
195 K, Crystal	147.3
195.64 K, Crystal	146.3
198.85 K, Crystal	148.5
200 K, Crystal	151
202.03 K, Crystal	150.3
205 K, Crystal	154.7
205.18 K, Crystal	152.4
208.33 K, Crystal	155.1
210 K, Crystal	158.4
211.45 K, Crystal	157.1
214.63 K, Crystal	159.5
215 K, Crystal	162.1
217.88 K, Crystal	161.4
220 K, Crystal	165.9
221.1 K, Crystal	163.8
224.3 K, Crystal	165.8
225 K, Crystal	169.6
227.46 K, Crystal	168.2
230 K, Crystal	173.4
230.62 K, Crystal	170.6
233.78 K, Crystal	172.5
235 K, Crystal	177.1
236.94 K, Crystal	174
240 K, Crystal	180.8
240.13 K, Crystal	176.1
243.21 K, Crystal	178.2
245 K, Crystal	184.4
246.34 K, Crystal	180.8
249.48 K, Crystal	182.2
250 K, Crystal	188
252.61 K, Crystal	184.3
255 K, Crystal	191.5
255.78 K, Crystal	186.3
258.93 K, Crystal	188.6
260 K, Crystal	195
262.07 K, Crystal	191
265 K, Crystal	198.3
265.19 K, Crystal	193.2
268.29 K, Crystal	195.2
270 K, Crystal	201.6
271.44 K, Crystal	197.5
274.65 K, Crystal	199.6
275 K, Crystal	204.8
277.84 K, Crystal	201.9
280 K, Crystal	208
281.02 K, Crystal	204.7
284.19 K, Crystal	207.3
285 K, Crystal	211.1
287.39 K, Crystal	210.2
290 K, Crystal	214.2
290.63 K, Crystal	212.7
293.83 K, Crystal	215.1
295 K, Crystal	217.4
297.06 K, Crystal	217.8
298.15 K, Crystal	219.4
300 K, Crystal	220.7
300.4 K, Crystal	220.6
303.7 K, Crystal	223.9
305 K, Crystal	224.2
310 K, Crystal	227.9
310.42 K, Crystal	229.1
314.19 K, Crystal	232.7
315 K, Crystal	232.1
318.33 K, Crystal	237.1
320 K, Crystal	236.9
322.65 K, Crystal	240.3
325 K, Crystal	242.4
326.89 K, Crystal	244.7
330 K, Crystal	248.8
331.21 K, Crystal	251.3
335 K, Crystal	256.3
335.57 K, Crystal	258.1
339.95 K, Crystal	261.8
340 K, Crystal	265.3
344.29 K, Crystal	261.9
345 K, Crystal	275.9
348.52 K, Crystal	262.4
350 K, Crystal	288.6
352.73 K, Crystal	271.3
355 K, Crystal	303.6
356.88 K, Crystal	286.2
360 K, Crystal	321.5
360.92 K, Crystal	323.9
370 K, Liquid	420.6
372.89 K, Liquid	422
375 K, Liquid	423.4
376.72 K, Liquid	424.4
380 K, Liquid	426.2
380.91 K, Liquid	427
385 K, Liquid	429
385.11 K, Liquid	428.8
390 K, Liquid	431.8
